Measured values: the CheMixHub ionic liquid set
Values joined by “and” are separate entries in the source; they are usually repeats but may differ in a detail not shown here. Equal entries are not always repeated.

Assay: xn = mol fraction of the nth substance listed

CCCC[n+]1ccn(C)c1.[Br-] + CCCCOCCO
viscosity [mPa·s], 100 kPa
Conditions | x1 = 0.1007 | x1 = 0.2003 | x1 = 0.3007 | x1 = 0.4003 | x1 = 0.5 | x1 = 0.5992 | x1 = 0.7002 | x1 = 0.8003 | x1 = 0.8978 | x1 = 1
298.15 K | 18.4 | 56.8 | 108 | 155 | 201 | 263 | 374 | 577 | 920 | 1451
303.15 K | 12.2 | 32.5 | 59.6 | 86.7 | 115 | 152 | 212 | 320 | 511 | 837
308.15 K | 9.08 | 22.8 | 40.7 | 59.4 | 77 | 98 | 132 | 187 | 297 | 506
313.15 K | 6.85 | 16.2 | 29.1 | 41.7 | 54.2 | 67.6 | 87.9 | 122 | 188 | 330

CC(O)C(C)O (stereo not drawn) + CCCC[N+](C)(C)C.O=S(=O)([N-]S(=O)(=O)C(F)(F)F)C(F)(F)F
101 kPa
Conditions | viscosity [mPa·s]
323.15 K, x1 = 0.557 | 16.54
323.15 K, x1 = 0.6216 | 16.03
328.15 K, x1 = 0.557 | 13.6
333.15 K, x1 = 0.3137 | 15.23
333.15 K, x1 = 0.4515 | 13.1
333.15 K, x1 = 0.557 | 11.67
343.15 K, x1 = 1 | 6.7

CC(=O)[O-].CCCC[NH2+]CCO + CCCC[n+]1ccn(C)c1.COP(=O)([O-])OC
viscosity [mPa·s], 101 kPa
Conditions | x1 = 0.1014 | x1 = 0.172 | x1 = 0.2979 | x1 = 0.4067 | x1 = 0.4989 | x1 = 0.6316 | x1 = 0.7065 | x1 = 0.8011 | x1 = 0.8913 | x1 = 1
278.15 K | – | – | – | – | – | – | – | – | – | 6138
283.15 K | 1725 | 1555 | 1328 | 1208 | 1161 | 1288 | 1457 | 1793 | 2360 | 3634
288.15 K | 1103 | 997 | 855 | 781 | 751 | 825 | 930 | 1135 | 1475 | 2230
293.15 K | 730 | 662 | 571 | 522 | 503 | 548 | 614 | 741 | 952 | 1412
298.15 K | 499 | 454 | 392 | 360 | 346 | 375 | 417 | 499 | 633 | 921
303.15 K | 351 | 319.8 | 277.3 | 254.3 | 244.8 | 263.1 | 290.6 | 344 | 431 | 617
308.15 K | 253.2 | 231.1 | 200.9 | 184.2 | 177.2 | 189.1 | 207.4 | 243.2 | 301 | 423
313.15 K | 186.8 | 170.8 | 148.7 | 136.5 | 131.1 | 138.9 | 151.3 | 175.7 | 214.8 | 297
318.15 K | 140.7 | 128.9 | 112.4 | 103.1 | 98.9 | 104 | 112.6 | 129.5 | 156.5 | 212.7
323.15 K | 108.1 | 99.1 | 86.6 | 79.4 | 76 | 79.4 | 85.4 | 97.2 | 116.1 | 155.3
328.15 K | 84.5 | 77.6 | 67.8 | 62.2 | 59.4 | 61.6 | 65.9 | 74.2 | 87.7 | 115.3
333.15 K | 67.08 | 61.68 | 53.98 | 49.43 | 47.16 | 48.5 | 51.57 | 57.6 | 67.3 | 87
338.15 K | 54.05 | 49.76 | 43.58 | 39.88 | 37.96 | 38.75 | 40.98 | 45.33 | 52.4 | 66.7
343.15 K | 44.14 | 40.69 | 35.65 | 32.6 | 30.96 | 31.37 | 33 | 36.18 | 41.36 | 51.9
348.15 K | 36.5 | 33.69 | 29.51 | 26.96 | 25.56 | 25.71 | 26.9 | 29.24 | 33.08 | 40.87
353.15 K | 30.53 | 28.22 | 24.71 | 22.56 | 21.33 | 21.31 | 22.18 | 23.9 | 26.78 | 32.6
358.15 K | 25.8 | 23.88 | 20.91 | 19.07 | 17.99 | 17.86 | 18.48 | 19.75 | 21.91 | 26.29
363.15 K | 22.02 | 20.4 | 17.86 | 16.27 | 15.31 | 15.1 | 15.55 | 16.48 | 18.11 | 21.43
368.15 K | 18.97 | 17.58 | 15.4 | 14.01 | 13.15 | 12.89 | 13.21 | 13.89 | 15.12 | 17.63
373.15 K | 16.47 | 15.28 | 13.38 | 12.15 | 11.38 | 11.09 | 11.3 | 11.8 | 12.72 | 14.64

CS(C)=O + CCCC[n+]1ccn(C)c1.F[B-](F)(F)F
100 kPa, x2 = 0
Conditions | electrical conductivity [S/m] | viscosity
298.15 K | 0.042 | 1.99 mPa·s and 2.012 mPa·s
303.15 K | – | 1.8 mPa·s
308.15 K | – | 1.65 mPa·s
313.15 K | – | 1.54 mPa·s

CC(=O)[O-].CCCC[NH2+]CCO + CCCC[n+]1ccn(C)c1.O=S(=O)([N-]S(=O)(=O)C(F)(F)F)C(F)(F)F
101 kPa
Conditions | viscosity [mPa·s]
283.15 K, x1 = 0.1012 | 127.4
283.15 K, x1 = 0.6987 | 1145
283.15 K, x1 = 0.8008 | 1850
283.15 K, x1 = 1 | 3634
288.15 K, x1 = 0.3002 | 164.2
288.15 K, x1 = 0.8008 | 1170
288.15 K, x1 = 0.901 | 1735
298.15 K, x1 = 0.2257 | 78.02
298.15 K, x1 = 0.8008 | 515
298.15 K, x1 = 0.901 | 731
298.15 K, x1 = 1 | 921
303.15 K, x1 = 0.4998 | 126.1
303.15 K, x1 = 0.8008 | 356
308.15 K, x1 = 0.3002 | 56.19
308.15 K, x1 = 1 | 423
313.15 K, x1 = 0.4998 | 73.4
313.15 K, x1 = 0.6987 | 130.9
313.15 K, x1 = 0.8008 | 182
313.15 K, x1 = 0.901 | 243.8
313.15 K, x1 = 1 | 297
318.15 K, x1 = 0.2257 | 32.2
318.15 K, x1 = 0.6987 | 98.5
318.15 K, x1 = 0.901 | 176.6
323.15 K, x1 = 0.6987 | 75.5
328.15 K, x1 = 0.2257 | 22.42
328.15 K, x1 = 0.6018 | 46.47
328.15 K, x1 = 0.901 | 98
338.15 K, x1 = 0.6987 | 37.11
343.15 K, x1 = 0.2257 | 14.05
343.15 K, x1 = 0.4998 | 20.65
343.15 K, x1 = 0.901 | 45.6
343.15 K, x1 = 1 | 51.9
348.15 K, x1 = 0.423 | 15.42
353.15 K, x1 = 0.901 | 29.26
353.15 K, x1 = 1 | 32.6
358.15 K, x1 = 0.3002 | 9.99
358.15 K, x1 = 0.423 | 11.46
358.15 K, x1 = 0.4998 | 12.68
363.15 K, x1 = 0.423 | 9.98
363.15 K, x1 = 1 | 21.43
368.15 K, x1 = 0.8008 | 14.29
368.15 K, x1 = 1 | 17.63
373.15 K, x1 = 0.3002 | 6.99
373.15 K, x1 = 0.423 | 7.73
373.15 K, x1 = 0.4998 | 8.35
373.15 K, x1 = 1 | 14.64

CCCCCCCCCCCCCC[P+](CCCCCC)(CCCCCC)CCCCCC.[c-]1c[nH]nn1 + CCCC[n+]1ccn(C)c1.O=S(=O)([N-]S(=O)(=O)C(F)(F)F)C(F)(F)F
100 kPa
Conditions | viscosity [mPa·s]
278.15 K, x2 = 0.2 | 2422
283.15 K, x2 = 0.1 | 1490
283.15 K, x2 = 0.722 | 481
293.15 K, x2 = 0.301 | 663
298.15 K, x2 = 0.1 | 486
298.15 K, x2 = 0.388 | 428
298.15 K, x2 = 0.9 | 77
303.15 K, x2 = 0.1 | 353
303.15 K, x2 = 0.301 | 339
308.15 K, x2 = 0.2 | 273
313.15 K, x2 = 0.2 | 205
313.15 K, x2 = 0.388 | 174
318.15 K, x2 = 0.2 | 158
318.15 K, x2 = 0.301 | 147
318.15 K, x2 = 0.8 | 50
323.15 K, x2 = 0.301 | 115

CS(C)=O + CCCC[n+]1ccn(C)c1.O=S(=O)([N-]S(=O)(=O)C(F)(F)F)C(F)(F)F
100 kPa
Conditions | electrical conductivity [S/m] | viscosity [mPa·s]
294.5 K, x2 = 0.02028 | 0.45 | –
298.15 K, x1 = 0.5903 | – | 13.22
303.15 K, x1 = 0.2885 | – | 23.78
303.15 K, x1 = 0.5026 | – | 13.9
308.15 K, x1 = 0.5903 | – | 9.52
308.15 K, x1 = 1 | – | 1.67
313.15 K, x1 = 0.0951 | – | 23.09
313.15 K, x1 = 0.2074 | – | 19.57
313.15 K, x1 = 0.5903 | – | 8.39
313.15 K, x1 = 1 | – | 1.53
323.15 K, x1 = 0.9012 | – | 2.15

N#CCCCCC#N + CCCC[n+]1ccn(C)c1.O=S(=O)([N-]S(=O)(=O)C(F)(F)F)C(F)(F)F
Conditions | electrical conductivity [S/m]
294.5 K, 100 kPa, x2 = 0.02785 | 0.29

CS(C)=O + CCCC[n+]1ccn(C)c1.O=S(=O)([O-])C(F)(F)F
100 kPa, x2 = 0
Conditions | viscosity [mPa·s]
298.15 K | 2.03
303.15 K | 1.84
308.15 K | 1.67
313.15 K | 1.53
318.15 K | 1.41
323.15 K | 1.3
